Our source for the EC50 and viability values is patent publication US10577362B2, “Substituted 2, 4-diamino-quinoline derivatives for use in the treatment of proliferative diseases” (GENOSCIENCE PHARMA, priority 2016, dated 2020).

The subject of test [1] is 786-O (renal adenocarcinoma) cell line. Put plainly: CellTiter-Glo luminescent cell viability assay, 786-O. The test is classed as cell-based, human. To be noted: Homo sapiens, 786-0; for EC50: 786-O cell line, 72 h incubation, CellTiter-Glo, read-out: EC50, growth inhibition of 786-O; for viability at 4 µM / viability at 10 µM: 786-O, 72 h; for viability at 4 µM: compound at 4 μM; for viability at 10 µM: compound at 10 μM. The essentials:
(§1)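 Adherent cells grow overnight, or suspension cells are seeded 1 h ahead; compound dilutions are then added and plates incubated 72 h at 37 °C. After 30 min at room temperature, CellTiter-Glo reagent is added and luminescence recorded. EC50 derives from signal relative to diluent control.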
On the technique in general: Cellular ATP, detected with luciferase, serves as a proxy for viable cell number.

For test [2], the system named is HCT-116 (colorectal carcinoma) cell line. Put plainly: CellTiter-Glo luminescent cell viability assay, HCT-116. Type of test: cell-based, human. Particulars: Homo sapiens; for viability at 4 µM: HCT-116, compound at 4 μM; for viability at 4 µM / viability at 10 µM: 72 h; for viability at 10 µM: HCT-116, compound at 10 μM; for EC50: HCT-116 cell line, 72 h incubation, CellTiter-Glo, read-out: EC50, growth inhibition of HCT-116. A digest of the protocol:
as §1

Test [3] has as its system PANC-1 (prancreatic carcinoma) cell line. Briefly: CellTiter-Glo luminescent cell viability assay, PANC-1. The test is classed as cell-based. Particulars: Homo sapiens; for viability at 4 µM: PANC-1, 4 μM; for viability at 4 µM / viability at 10 µM: 72 h, % of signal of diluent-treated cultures; for viability at 10 µM: PANC-1, 10 μM; for EC50: PANC-1 cell line, 72 h incubation, CellTiter-Glo, read-out: EC50 (growth inhibition assay of PANC-1 cell line). The essentials:
(§2)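 Cells were cultured at 37 °C, 5% CO2 with 10% FBS; adherent lines were plated overnight, suspension MOLM-14 plated 1 h before dosing. Compounds in H2O or DMSO were added at various concentrations for 72 h, and viability was read by luminescence. EC50 is the dose reducing signal to 50% of diluent control.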

Test [4] has as its system Huh7 (hepatocellular carcinoma) cell line. Put plainly: CellTiter-Glo luminescent cell viability assay, Huh7. Type of test: cell-based, human. Particulars: Homo sapiens, Huh-7; for viability at 4 µM: Huh7, compound at 4 μM; for viability at 4 µM / viability at 10 µM: 72 h; for viability at 10 µM: Huh7, compound at 10 μM; for EC50: Huh7 cell line, 72 h incubation, CellTiter-Glo, read-out: EC50, growth inhibition of Huh7. The essentials: as §2

The test system of test [5] is MOLM-14 (acute myeloid leukemia) cell line. Put plainly: CellTiter-Glo luminescent cell viability assay, MOLM-14. The test is classed as cell-based, human. To be noted: Homo sapiens; for viability at 4 µM: MOLM-14, compound at 4 μM; for viability at 4 µM / viability at 10 µM: 72 h; for viability at 10 µM: MOLM-14, compound at 10 μM; for EC50: MOLM-14 cell line, 72 h incubation, CellTiter-Glo, read-out: EC50, growth inhibition of MOLM-14. A digest of the protocol:
as §2

Test [6] relates to HepG2 (hepatocellular carcinoma) cell line. Briefly: CellTiter-Glo luminescent cell viability assay, HepG2. The test is classed as cell-based, human. To be noted: Homo sapiens; for viability at 4 µM / viability at 10 µM: HepG2, HepG, 72 h; for viability at 4 µM: compound at 4 μM; for viability at 10 µM: compound at 10 μM; for EC50: HepG2 cell line, 72 h incubation, CellTiter-Glo, read-out: EC50, growth inhibition of HepG2. A digest of the protocol:
as §2

Test [7] deals with A375 (malignant melanoma) cell line. Put plainly: CellTiter-Glo luminescent cell viability assay, A375. Type of test: cell-based, human. Particulars: Homo sapiens, A-375; for viability at 4 µM: A375, compound at 4 μM; for viability at 4 µM / viability at 10 µM: 72 h; for viability at 10 µM: A375, compound at 10 μM; for EC50: A375 cell line, 72 h incubation, CellTiter-Glo, read-out: EC50, growth inhibition of A375. The essentials: as §1

On to `N#Cc1c(NCc2ccc(Cl)cc2)nc2ccccc2c1N1CCC(NC2CCOCC2)CC1` [Compound 3180CN, 2-(4-chlorobenzylamino)-3-cyano-4-{4-[(tetrahydro-2H-pyran-4-yl)amino]piperidin-1-yl}quinoline], for which the concentration giving a half-maximal response (EC50) in test [1], in test [2], in test [3], in test [4], in test [5] and in test [6] was 5 to 10 µM each time. Further, the EC50 – broadly, the concentration giving half of the maximal effect – in test [7] was 5 to 10 µM. For the same compound, the viability (commonly a read-out of living cells in per cent, often relative to untreated cells) at 4 µM was 69.7% in test [1]; 59.5% in test [2]; 94.9% in test [3]; 76.5% in test [4]; 92.3% in test [5]; 78.4% in test [6]. In addition, the viability at 4 µM in test [7] was 88.6%. The viability at 10 µM in test [1] turned out to be 0.4%; in test [2], 0.2%; in test [3], 58.9%; in test [4], 0.4%; in test [5], 22.7%; in test [6], 0.4%. Further, the viability at 10 µM in test [7] worked out at 0.3%.

On to `CC(C)(C)NC1CCN(c2c(C#N)c(Nc3ccccc3)nc3ccccc23)CC1` [Compound 3246CN, 2-(phenylamino)-3-cyano-4-[4-(tert-butylamino)piperidin-1-yl]quinoline], for which the EC50 is 5 to 10 µM in test [1]; 0.5 to 5 µM in test [2]; 5 to 10 µM in test [3]; 0.5 to 5 µM in test [4]; 5 to 10 µM in test [5]; 0.5 to 5 µM in test [6]. The EC50 in test [7] lay within 0.5 to 5 µM. In addition, the viability at 4 µM stood at 59% in test [1]; 3% in test [2]; 88.2% in test [3]; 67.7% in test [4]; 91.9% in test [5]; 53.2% in test [6]. Also, the viability at 4 µM in test [7] was found to be 66.2%. For the same compound, the viability at 10 µM in test [1] came to 0.2%; in test [2], 0.1%; in test [3], 38.8%; in test [4], 0.6%; in test [5], 3.1%; in test [6], 0.2%. Besides, in test [7], the viability at 10 µM was 0.2%.

Regarding `Cc1nc(Nc2nc3ccccc3c(N3CCC(NC(C)(C)C)CC3)c2C#N)n(C)n1` [Compound 3274CN, 2-[(1,3-dimethyl-1H-1,2,4-triazol-5-yl)amino]-3-cyano-4-[4-(tert-butylamino)piperidin-1-yl]quinoline], the viability at 4 µM in test [1] was found to be 106%; in test [2], 73.3%; in test [3] it was 96.7%; in test [4], 96.2%; in test [5], 91.3%; in test [6] it was 63.4%. The viability at 4 µM in test [7] came to 84.7%. Besides, the viability at 10 µM in test [1] was determined as 83.4%; in test [2] it was 49.5%; in test [3], 89.9%; in test [4], 75%; in test [5] it was 78.2%; in test [6], 55.2%. Besides, the viability at 10 µM in test [7] was found to be 69.2%.

In the case of `Cc1ccc2c(N3CCC(NC(C)(C)C)CC3)c(C#N)c(NCc3ccc(Cl)cc3)nc2c1` [Compound 416CN, 2-(4-chlorobenzylamino)-3-cyano-4-[4-(tert-butylamino)piperidin-1-yl]-7-methylquinoline], the EC50 in test [1] is 0.5 to 5 µM; in test [2] it was 0.5 to 5 µM; in test [3], 5 to 10 µM; in test [4], 0.5 to 5 µM; in test [5], 0.5 to 5 µM; in test [6] it was 0.5 to 5 µM. In test [7], the EC50 lay in the range of 0.5 to 5 µM. In addition, the viability at 4 µM worked out at 0.4% in test [1]; 0.3% in test [2]; 100% in test [3]; 75.5% in test [4]; 37.9% in test [5]; 61.9% in test [6]. The viability at 4 µM in test [7] was 0.4%. Besides, the viability at 10 µM in test [1] turned out to be 0.3%; in test [2], 0.3%; in test [3] it was 0.7%; in test [4], 0.6%; in test [5], 0.4%; in test [6] it was 0.5%. Besides, the viability at 10 µM in test [7] came to 0.4%.

On to `N#Cc1c(NCc2ccc(Cl)cc2)nc2ccccc2c1N1CCCC(N2CCCC2)C1` (stereo not shown) [Compound 176CN, 2-(4-chlorobenzylamino)-3-cyano-4-[3-(pyrrolidin-1-yl)piperidin-1-yl]quinoline], for which the viability at 4 µM in test [1] was found to be 89.8%; in test [2], 84.3%; in test [3] it was 93.2%; in test [4], 96.4%; in test [5], 95.6%; in test [6], 93%. Besides, the viability at 4 µM in test [7] is 114%. Besides, the viability at 10 µM in test [1] came to 39.3%; in test [2] it was 42.7%; in test [3] it was 70.6%; in test [4] it was 64.7%; in test [5], 75.2%; in test [6] it was 60.2%. Besides, the viability at 10 µM in test [7] was determined as 65.4%.

In the case of `CC(C)(C)NC1CCN(c2c(C#N)c(Nc3cccc(C(F)(F)F)c3)nc3ccccc23)CC1` [Compound 3256CN, 2-(3-trifluoromethylphenylamino)-3-cyano-4-[4-(tert-butylamino)piperidin-1-yl]quinoline], the viability at 4 µM in test [1] came to 61.8%; in test [2], 3.6%; in test [3], 104%; in test [4], 78.3%; in test [5], 91.1%; in test [6] it was 82.9%. In addition, the viability at 4 µM in test [7] amounted to 55.2%. In addition, the viability at 10 µM in test [1] came to 13.7%; in test [2], 0.2%; in test [3], 81.8%; in test [4], 29.3%; in test [5], 85.6%; in test [6] it was 56.6%. Also, the viability at 10 µM in test [7] amounted to 2.4%.

Turning to `Cn1cc(Nc2nc3ccccc3c(N3CCC(NC(C)(C)C)CC3)c2C#N)cn1` [Compound 3268CN, 2-[(1-methyl-1H-pyrazol-4-yl)amino]-3-cyano-4-[4-(tert-butylamino)piperidin-1-yl]quinoline], the viability at 4 µM in test [1] was found to be 109%; in test [2], 73.7%; in test [3], 95.8%; in test [4], 94%; in test [5] it was 91%; in test [6] it was 68.6%. Further, the viability at 4 µM in test [7] was determined as 61.8%. Besides, the viability at 10 µM in test [1] is 80.1%; in test [2], 22.6%; in test [3] it was 43.6%; in test [4] it was 64.8%; in test [5], 77.6%; in test [6], 56%. Besides, in test [7], the viability at 10 µM was 11.3%.

`CC(C)(C)NC1CCN(c2c(C#N)c(NCc3ccco3)nc3ccccc23)CC1` [Compound 3302CN, 2-[(furan-2-ylmethyl)amino]-3-cyano-4-[4-(tert-butylamino)piperidin-1-yl]quinoline]: the viability at 4 µM in test [1] came to 86.1%; in test [2] it was 57.4%; in test [3], 95.8%; in test [4] it was 76.6%; in test [5], 82.3%; in test [6], 83.3%. Moreover, in test [7], the viability at 4 µM was found to be 81.6%. Further, the viability at 10 µM in test [1] was 48.1%; in test [2], 10.8%; in test [3], 82.3%; in test [4], 40.1%; in test [5], 67%; in test [6], 57.5%. In test [7], the viability at 10 µM was 14.3%.
